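Compound exposure: 48 hours, 5 concentrations, 96-well plates. Abbreviation: GI50, concentration required for 50% inhibition of growth.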 Calls of active or inactive are those of the source. Rule as the data show it: active = GI50 up to about 1.1 µM and inactive = higher.
Columns and labels:
Experiment in all cases: DTP human tumour cell line panel, 48 h
PC-3 = tested on: PC-3
MCF7 = tested on: MCF7
KM12 = tested on: KM12
OVCAR-5 = tested on: OVCAR-5
HCT-15 = tested on: HCT-15
UACC-62 = tested on: UACC-62
NCI-H226 = tested on: NCI-H226
HCC 2998 = tested on: HCC 2998
SK-MEL-5 = tested on: SK-MEL-5
NCI-H23 = tested on: NCI-H23
A549 = tested on: A549
LOX IMVI = tested on: LOX IMVI
CCRF-CEM = tested on: CCRF-CEM
M14 = tested on: M14
K562 = tested on: K562
HCT-116 = tested on: HCT-116
SNB-19 = tested on: SNB-19
MOLT-4 = tested on: MOLT-4
CAKI-1 = tested on: CAKI-1
MDA-MB-231 = tested on: MDA-MB-231

Row | Compound | GI50 (PC-3) | GI50 (MCF7) | GI50 (KM12) | GI50 (OVCAR-5) | GI50 (HCT-15) | GI50 (UACC-62) | GI50 (NCI-H226) | GI50 (HCC 2998) | GI50 (SK-MEL-5) | GI50 (NCI-H23) | GI50 (A549) | GI50 (LOX IMVI) | GI50 (CCRF-CEM) | GI50 (M14) | GI50 (K562) | GI50 (HCT-116) | GI50 (SNB-19) | GI50 (MOLT-4) | GI50 (CAKI-1) | GI50 (MDA-MB-231)
1 | O=c1[nH]nc(-c2ccccc2)n1/N=C/c1ccncc1 | > 100 µM (inactive) | > 100 µM (inactive) | > 100 µM (inactive) | 37.7 µM (inactive) | > 100 µM | > 100 µM (inactive) | 97.7 µM (inactive) | > 100 µM (inactive) | 44.7 µM (inactive) | > 100 µM (inactive) | > 100 µM (inactive) | > 100 µM (inactive) | > 100 µM (inactive) | > 100 µM (inactive) | > 100 µM (inactive) | 53.6 µM (inactive) | > 100 µM (inactive) | > 100 µM (inactive) | > 100 µM (inactive) | 
2 | CC(C)(C)OC(=O)NC(CCCCNC(=O)OCc1ccccc1)C(=O)NC(CCCCNC(=O)OCc1ccccc1)C(=O)ON1C(=O)CCC1=O (stereo not drawn) | > 100 µM (inactive) | > 100 µM (inactive) | > 100 µM (inactive) | > 100 µM (inactive) | > 100 µM | > 100 µM (inactive) | > 100 µM (inactive) | > 100 µM (inactive) | > 100 µM (inactive) | > 100 µM (inactive) | > 100 µM (inactive) |  | > 100 µM (inactive) | > 100 µM (inactive) | > 100 µM (inactive) | > 100 µM (inactive) | > 100 µM (inactive) | > 100 µM (inactive) |  | > 100 µM (inactive)
3 | CNC(=O)Oc1ccc(C(=S)Nc2ccc(Br)cc2)cc1 | 23.8 µM (inactive) | 18.3 µM (inactive) | 14.3 µM (inactive) | 25.4 µM (inactive) | 16.1 µM | 12.9 µM (inactive) |  | 17.8 µM (inactive) | 17.8 µM (inactive) | 15.7 µM (inactive) | 21.9 µM (inactive) | 13.4 µM (inactive) | 1.81 µM (inactive) | 18.1 µM (inactive) | 14.1 µM (inactive) | 19.8 µM (inactive) | 36.3 µM (inactive) | 5.42 µM (inactive) | 17.8 µM (inactive) | 
4 | COC(=O)c1ccccc1C1=C([N+](=O)[O-])C(c2cccc(Br)c2)C(C#N)=C(N)O1 (stereo not drawn) | 40.6 µM (inactive) |  | > 10 µM (inactive) | > 100 µM (inactive) | 19.4 µM | 21 µM (inactive) | > 100 µM (inactive) | 26.3 µM (inactive) | 86.5 µM (inactive) | 27.1 µM (inactive) | > 100 µM (inactive) | 19.4 µM (inactive) | 20.8 µM (inactive) | 28 µM (inactive) | 19.9 µM (inactive) | 31.5 µM (inactive) | 91.6 µM (inactive) | 25.4 µM (inactive) |  | 73.8 µM (inactive)
5 | CSc1nc(Cl)c2c(n1)Sc1nc3ccccc3n1N=C2 | 22.3 µM (inactive) |  | 37.8 µM (inactive) | 28.9 µM (inactive) | 17.6 µM | 29.4 µM (inactive) | 62.7 µM (inactive) | 26.5 µM (inactive) | 21.3 µM (inactive) | 29.6 µM (inactive) | 45.2 µM (inactive) | 18.2 µM (inactive) | 14.9 µM (inactive) | 21 µM (inactive) | 21.3 µM (inactive) | 25.1 µM (inactive) | > 100 µM (inactive) | 21.7 µM (inactive) | 13.4 µM (inactive) | 23.9 µM (inactive)
6 | C/C(=C\c1ccc(Cl)c(Cl)c1)[N+](=O)[O-] |  | 0.433 µM (active) | 2.02 µM (inactive) | 1.96 µM (inactive) | 1.35 µM | 2.38 µM (inactive) | 2.46 µM (inactive) | 4.36 µM (inactive) | 2.04 µM (inactive) | 2.26 µM (inactive) | 1.89 µM (inactive) | 0.314 µM (active) |  | 0.738 µM (active) | 1.55 µM (inactive) | 2.77 µM (inactive) | 2.39 µM (inactive) | 0.398 µM (active) |  | 2.1 µM (inactive)
7 | Cc1c(O)c(=O)ccn1CCc1c[nH]c2ccccc12 | 28.4 µM (inactive) | 4.89 µM (inactive) | 22 µM (inactive) | 14.6 µM (inactive) | 0.397 µM |  |  |  | 6.52 µM (inactive) | 20.5 µM (inactive) | 9.35 µM (inactive) | 0.0335 µM (active) |  | 7.48 µM (inactive) | 14.4 µM (inactive) | 6.61 µM (inactive) | 6.81 µM (inactive) | 8.2 µM (inactive) | 1.21 µM (inactive) | 0.718 µM (active)
8 | OCCC/N=C1N=C(Cl)/C(=C\c2ccccc2)N\1 |  | > 100 µM (inactive) | > 100 µM (inactive) | > 100 µM (inactive) | > 100 µM |  | > 100 µM (inactive) | > 100 µM (inactive) | > 100 µM (inactive) | > 100 µM (inactive) | > 100 µM (inactive) | > 100 µM (inactive) | > 100 µM (inactive) | > 100 µM (inactive) | > 100 µM (inactive) | > 100 µM (inactive) | > 100 µM (inactive) | > 100 µM (inactive) | > 100 µM (inactive) | > 100 µM (inactive)
9 | CCOC(=O)C(NC(=O)Nc1ccc(Cl)c(Cl)c1)C(F)(F)F (stereo not drawn) | > 100 µM (inactive) |  |  | > 100 µM (inactive) | 40.9 µM |  |  | > 100 µM (inactive) | > 100 µM (inactive) | > 100 µM (inactive) | > 100 µM (inactive) | > 100 µM (inactive) | > 100 µM (inactive) | > 100 µM (inactive) | 92.5 µM (inactive) | > 100 µM (inactive) | > 100 µM (inactive) | > 100 µM (inactive) |  | 
10 | N#CC(c1cc(Cl)ncn1)c1nc2cc(C(F)(F)F)ccc2s1 (stereo not drawn) |  |  | 3.27 µM (inactive) | 3.78 µM (inactive) | 3.48 µM |  | 15.1 µM (inactive) |  | 9.57 µM (inactive) | 2.58 µM (inactive) | 6.01 µM (inactive) | 3.57 µM (inactive) |  | 4.09 µM (inactive) | 6.92 µM (inactive) | 2.97 µM (inactive) | 3.83 µM (inactive) | 4.74 µM (inactive) | 8.95 µM (inactive) | 4.31 µM (inactive)
11 | C/C(Nc1ccc(Cl)cc1Cl)=C1/CCOC1=O | > 100 µM (inactive) | > 100 µM (inactive) | > 100 µM (inactive) |  | > 100 µM | 63.7 µM (inactive) | > 100 µM (inactive) | > 100 µM (inactive) | > 100 µM (inactive) | 59.3 µM (inactive) | 78.7 µM (inactive) | > 100 µM (inactive) | 25.3 µM (inactive) |  | > 100 µM (inactive) | > 100 µM (inactive) | 26.2 µM (inactive) | 87.3 µM (inactive) |  | 19.9 µM (inactive)
12 | CCOC(=O)c1[nH]c(Br)c(-c2ccc(OC)c(OC)c2)c1Br | 0.0356 µM (active) | 0.245 µM (active) | 0.0303 µM (active) | 5.27 µM (inactive) | 0.0527 µM | 0.0418 µM (active) | 0.0381 µM (active) | 0.199 µM (active) | 0.0412 µM (active) | 0.0891 µM (active) | 0.287 µM (active) | 0.0179 µM (active) | 0.0173 µM (active) | 0.028 µM (active) | 0.0121 µM (active) | 0.0183 µM (active) | 0.181 µM (active) | 0.0262 µM (active) |  | 0.321 µM (active)

From ChEMBL document CHEMBL1201862, “PubChem BioAssay data set” (2004)
